Earlier results, collected in patent US9707259B2, “Magnetic diffusional patch” (METUAS MEDIKAL SAGLIK HIZ-METLERI DANISMANLIK IHRACAT …, priority 2011, dated 2017).

Experiments:
[1] = system: activated human monocytes
[2] = system: thromboxane and leukotriene B4 synthesis
[3] = experimental animals, rheumatoid arthritis

Row | Structure (SMILES) | inflammation mediators [1] | effect on cyclooxygenase (COX) enzyme (cyclooxygenase (COX)) | effect on lipooxygenase enzyme (lipooxygenase enzymes) | synthesis of thromboxane and leukotriene B4 from eicosanoids [2] | levels of pro-inflammation cytokines TNF-alpha and interleukin (IL)-1beta (rheumatoid arthritis; [3]) | severity of the disease (rheumatoid arthritis; [3]) | induced arthritis with the aid of collagen (rheumatoid arthritis; experimental studies)
1 | CC1=CCC(O)(C(C)C)CC1 (stereo not shown) [4-terpineol] | suppress | – | – | – | – | – | –
2 | CC1=CC(=O)C(C(C)C)=CC1=O [thymoquinone] | – | blocks | blocks | inhibits | reduction | decreases | able to suppress
